Assay results as given in ChEMBL document CHEMBL4138182, “Aminomethylation of heliomycin: Preparation and anticancer characterization of the first series of semi-synthetic derivatives” (Eur J Med Chem, 2018).
Active and inactive are the calls of the source. The calls are words filed in the database; no cut-off is given here.

test system: T-24; experiment: Induction of apoptosis n human T24 cells assessed as downregulation of Bcl-2 levels at 0.5 to 1 uM after 18 hrs by Western blot method; format: functional, cell-based; details: not given

SMILES	Activity
Cc1cc(O)c2c3c4c(cc(O)c13)C(C)(C)C(=O)c1c(O)c(CN(C)C)c(O)c(c1-4)C2=O	Active

test system: not listed separately; experiment: Selectivity index, ratio of IC50 for HMEC1 cells to IC50 for p53 deficient human HCT116 cells; format: toxicity; details: HMEC1 cells and p53 deficient HCT116 cells, read-out: Ratio IC50

SMILES	selectivity ratio
Cc1cc(O)c2c3c4c(cc(O)c13)C(C)(C)C(=O)c1c(O)c(CN(C)C)c(O)c(c1-4)C2=O	2 to 50

test system: Calf thymus DNA; experiment: Binding affinity to calf thymus double stranded DNA by Benesi-Hildebrand plot analysis; format: nucleic-acid assay, Bos taurus; details: not given

SMILES	Kd
Cc1cc(O)c2c3c4c(cc(O)c13)C(C)(C)C(=O)c1c(O)c(CN(C)C)c(O)c(c1-4)C2=O	34 µM

same assay, conditions: Bos taurus

SMILES	Kb
Cc1cc(O)c2c3c4c(cc(O)c13)C(C)(C)C(=O)c1c(O)c(CN(C)C)c(O)c(c1-4)C2=O	3 ×10⁴ /M

test system: T-24; experiment: Induction of apoptosis n human T24 cells assessed as caspase-3 cleavage at 0.5 to 1 uM after 18 hrs by Western blot method; format: functional, cell-based; details: not given

SMILES	Activity
Cc1cc(O)c2c3c4c(cc(O)c13)C(C)(C)C(=O)c1c(O)c(CN(C)C)c(O)c(c1-4)C2=O	Active

test system: not listed separately; experiment: Selectivity index, ratio of IC50 for HMEC1 cells to IC50 for human K562/4 cells; format: toxicity; details: HMEC1 cells and K562/4 cells, read-out: Ratio IC50

SMILES	selectivity ratio
Cc1cc(O)c2c3c4c(cc(O)c13)C(C)(C)C(=O)c1c(O)c(CN(C)C)c(O)c(c1-4)C2=O	2 to 50

molecular target: T1, DNA topoisomerase 1 (Homo sapiens) (UniProt P11387); experiment: Inhibition of human DNA topoisomerase 1 assessed as decrease in relaxation of pBR322 at <= 20 uM after 30 to 40 mins by agarose gel electrophoresis; details: not given
T1 sequence (whole entry): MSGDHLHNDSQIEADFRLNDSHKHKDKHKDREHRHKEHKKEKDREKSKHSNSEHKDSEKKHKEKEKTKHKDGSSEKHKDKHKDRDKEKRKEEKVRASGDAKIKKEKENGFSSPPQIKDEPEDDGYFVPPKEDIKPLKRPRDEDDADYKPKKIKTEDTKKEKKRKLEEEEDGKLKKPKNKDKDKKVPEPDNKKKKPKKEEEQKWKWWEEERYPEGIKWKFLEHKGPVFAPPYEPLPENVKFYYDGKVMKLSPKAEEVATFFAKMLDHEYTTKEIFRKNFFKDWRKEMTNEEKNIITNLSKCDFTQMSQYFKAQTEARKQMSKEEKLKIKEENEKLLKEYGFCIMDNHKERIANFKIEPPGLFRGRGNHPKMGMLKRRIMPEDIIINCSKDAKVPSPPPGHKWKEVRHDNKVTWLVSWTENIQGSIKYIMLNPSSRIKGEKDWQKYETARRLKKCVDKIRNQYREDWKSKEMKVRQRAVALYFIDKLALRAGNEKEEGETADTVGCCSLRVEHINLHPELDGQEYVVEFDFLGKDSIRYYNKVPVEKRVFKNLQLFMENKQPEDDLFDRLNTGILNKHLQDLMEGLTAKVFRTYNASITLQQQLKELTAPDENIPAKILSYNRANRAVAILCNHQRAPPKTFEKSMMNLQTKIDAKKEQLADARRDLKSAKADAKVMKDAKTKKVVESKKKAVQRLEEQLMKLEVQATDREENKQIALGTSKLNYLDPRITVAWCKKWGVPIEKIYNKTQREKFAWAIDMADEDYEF

SMILES	Topoisomerase 1 inhibition (active/inactive)
Cc1cc(O)c2c3c4c(cc(O)c13)C(C)(C)C(=O)c1c(O)c(CN(C)C)c(O)c(c1-4)C2=O	Active

test system: Calf thymus DNA; experiment: Binding affinity to calf thymus double stranded DNA at 10 uM by fluorescence spectrophotometer; format: nucleic-acid assay; details: Bos taurus

SMILES	Activity
Cc1cc(O)c2c3c4c(cc(O)c13)C(C)(C)C(=O)c1c(O)c(CN(C)C)c(O)c(c1-4)C2=O	Active

test system: not listed separately; experiment: Selectivity index, ratio of IC50 for HMEC1 cells to IC50 for human K562 cells; format: toxicity; details: HMEC1 cells and K562 cells, read-out: Ratio IC50

SMILES	selectivity ratio
Cc1cc(O)c2c3c4c(cc(O)c13)C(C)(C)C(=O)c1c(O)c(CN(C)C)c(O)c(c1-4)C2=O	2 to 50

test system: not listed separately; experiment: Antiproliferative activity against human K562/4 cells after 72 hrs by MTT assay; format: functional, cell-based; details: K562/4, 72 h

SMILES	IC50
Cc1cc(O)c2c3c4c(cc(O)c13)C(C)(C)C(=O)c1c(O)c(CN(C)C)c(O)c(c1-4)C2=O	1 µM

test system: HeLa; experiment: Antiproliferative activity against human HeLa cells after 72 hrs by MTT assay; format: functional, cell-based; details: not given

SMILES	IC50
Cc1cc(O)c2c3c4c(cc(O)c13)C(C)(C)C(=O)c1c(O)c(CN(C)C)c(O)c(c1-4)C2=O	28.3 µM

test system: not listed separately; experiment: Selectivity index, ratio of IC50 for HMEC1 cells to IC50 for mouse L1210 cells; format: toxicity; details: HMEC1 cells and L1210 cells, read-out: Ratio IC50

SMILES	selectivity ratio
Cc1cc(O)c2c3c4c(cc(O)c13)C(C)(C)C(=O)c1c(O)c(CN(C)C)c(O)c(c1-4)C2=O	2 to 50

test system: K562; experiment: Antiproliferative activity against human K562 cells after 72 hrs by MTT assay; format: functional, cell-based; details: K562, 72 h

SMILES	IC50
Cc1cc(O)c2c3c4c(cc(O)c13)C(C)(C)C(=O)c1c(O)c(CN(C)C)c(O)c(c1-4)C2=O	0.7 µM

test system: HCT-116; experiment: Antiproliferative activity against human HCT116 cells after 72 hrs by MTT assay; format: functional, cell-based; details: HCT-116, 72 h

SMILES	IC50
Cc1cc(O)c2c3c4c(cc(O)c13)C(C)(C)C(=O)c1c(O)c(CN(C)C)c(O)c(c1-4)C2=O	1.1 µM

test system: L1210; experiment: Antiproliferative activity against mouse L1210 cells after 72 hrs by MTT assay; format: functional, cell-based; details: L1210, 72 h

SMILES	IC50
Cc1cc(O)c2c3c4c(cc(O)c13)C(C)(C)C(=O)c1c(O)c(CN(C)C)c(O)c(c1-4)C2=O	17 µM

test system: CCRF-CEM; experiment: Antiproliferative activity against human CEM cells after 72 hrs by MTT assay; format: functional, cell-based; details: not given

SMILES	IC50
Cc1cc(O)c2c3c4c(cc(O)c13)C(C)(C)C(=O)c1c(O)c(CN(C)C)c(O)c(c1-4)C2=O	17.1 µM

test system: T-24; experiment: Growth inhibition of human T24 cells after 72 hrs by cell impedance method; format: functional, cell-based; details: T-24, 72 h

SMILES	IC50
Cc1cc(O)c2c3c4c(cc(O)c13)C(C)(C)C(=O)c1c(O)c(CN(C)C)c(O)c(c1-4)C2=O	4.7 µM

test system: T-24; experiment: Induction of reactive oxygen species generation in human T24 cells at 1 uM after 30 mins by H2DCFDA dye-based flow cytometric method; format: functional, cell-based; details: not given

SMILES	Activity
Cc1cc(O)c2c3c4c(cc(O)c13)C(C)(C)C(=O)c1c(O)c(CN(C)C)c(O)c(c1-4)C2=O	Active

test system: not listed separately; experiment: Selectivity index, ratio of IC50 for HMEC1 cells to IC50 for human HCT116 cells; format: toxicity; details: HMEC1 cells and HCT116 cells, read-out: Ratio IC50

SMILES	selectivity ratio
Cc1cc(O)c2c3c4c(cc(O)c13)C(C)(C)C(=O)c1c(O)c(CN(C)C)c(O)c(c1-4)C2=O	2 to 50

test system: T-24; experiment: Induction of apoptosis n human T24 cells assessed as upregulation of Bak levels at 0.5 to 1 uM after 18 hrs by Western blot method; format: functional, cell-based; details: not given

SMILES	Activity
Cc1cc(O)c2c3c4c(cc(O)c13)C(C)(C)C(=O)c1c(O)c(CN(C)C)c(O)c(c1-4)C2=O	Active

test system: T-24; experiment: Induction of apoptosis n human T24 cells assessed as PARP cleavage at 0.5 to 1 uM after 18 hrs by Western blot method; format: functional, cell-based; details: not given

SMILES	Activity
Cc1cc(O)c2c3c4c(cc(O)c13)C(C)(C)C(=O)c1c(O)c(CN(C)C)c(O)c(c1-4)C2=O	Active

test system: HMEC-1; experiment: Antiproliferative activity against HMEC1 cells after 72 hrs by MTT assay; format: cell-based; details: Homo sapiens, HMEC-1, 72 h

SMILES	IC50
Cc1cc(O)c2c3c4c(cc(O)c13)C(C)(C)C(=O)c1c(O)c(CN(C)C)c(O)c(c1-4)C2=O	32.6 µM

test system: T-24; experiment: Induction of apoptosis n human T24 cells assessed as upregulation of p53 levels at 0.5 to 1 uM after 18 hrs by Western blot method; format: functional, cell-based; details: not given

SMILES	Activity
Cc1cc(O)c2c3c4c(cc(O)c13)C(C)(C)C(=O)c1c(O)c(CN(C)C)c(O)c(c1-4)C2=O	Active

test system: T-24; experiment: Induction of apoptosis n human T24 cells at 1 uM after 24 hrs by annexin V-FITC/propidium iodide staining-based flow cytometric method; format: functional, cell-based; details: not given

SMILES	Activity
Cc1cc(O)c2c3c4c(cc(O)c13)C(C)(C)C(=O)c1c(O)c(CN(C)C)c(O)c(c1-4)C2=O	Active

test system: HCT-116; experiment: Antiproliferative activity against p53 deficient human HCT116 cells after 72 hrs by MTT assay; format: functional, cell-based; details: HCT-116, 72 h

SMILES	IC50
Cc1cc(O)c2c3c4c(cc(O)c13)C(C)(C)C(=O)c1c(O)c(CN(C)C)c(O)c(c1-4)C2=O	0.6 µM
